“Also recorded” adds a separate entry of the source.
Experiments:
spinal cord white matter = assay: Area of residual white matter at the lesion epicenter (Luxol fast blue); format: in vivo, mouse; details: 42 days post injury, GM6001 vs vehicle, P=0.01
Method: (§1) Adult, male mice (4-6 months of age), were anesthetized with 2.5% Avertin (0.02 ml/g bw, i.p.) and maintained at 37° C. throughout the experiment by using a warming blanket placed under the animal. A contusive injury was performed based upon modifications of procedures originally described by Kuhn and Wrathall (1998) J. Neurotrauma 15:125-140. Briefly, using aseptic techniques the spinous process and laminae of T8 were removed and a circular region of dura, approximately 2.4 mm in diameter, was exposed. After stabilization of the vertebral column, a 2 gm weight was dropped 5.0 cm onto the exposed dura. After injury, the overlying skin was closed with wound clips. Postoperative care included manual expression of each animal's bladder until recovery of reflex emptying.
Wild type mice were subjected to spinal cord injury as described in the previous section. All mice were treated with either GM 6001 (AMS Scientific, Inc., Concord, Calif. 100 mg/kg in 4% methylcellulose, i.p.), a general inhibitor of MMPs, or vehicle (4% methylcellulose, i.p.), at 3 hours post injury. […]
The area of residual white matter at the epicenter was determined in vehicle-and drug-treated wild type mice at 42 days post injury. […] These sections were captured with a Spotcam camera mounted on a Nikon Optiphot and analyzed using Photoshop 6.0™. […] These pixels were quantified and expressed per unit area.

neutrophils = assay: Neutrophil infiltration into the lesion (chloroacetate esterase stain) after spinal cord injury; format: in vivo, mouse; details: 24 hours post injury; GM6001 N=4 vs vehicle N=4; P=0.01
Method: as §1, with “emptying. […]” for “emptying.”
The protocol was as described by the manufacturer with several exceptions. […] The number of neutrophils within each of these sections was determined from digital images, captured with a CCD camera, as described in the preceding paragraph at 40×magnification. […] Only darkly stained structures, greater than 38 μm^2 (7 μm in diameter) were counted. For the rostral and caudal sections, the numbers of neutrophils within the entire cross sections were determined and summed. For the epicenter, neutrophils were quantified within specific regions of the cross section. […]

[1] = system: blood-spinal cord barrier; assay: Blood-spinal cord barrier permeability to luciferase after spinal cord injury; format: in vivo, mouse; details: 24 hours post injury, GM6001 begun at 3 hours after injury, N=6, vs vehicle N=4, P=0.04
Method: as §1, with “A contusive injury was performed based upon modifications of procedures originally described by Kuhn and Wrathall (1998) J. Neurotrauma 15:125-140.” left out
(§2) Wild type mice were subjected to spinal cord injury as described in the previous section. […] Animals were treated every 12 hours (100 mg/kg in 4% methylcellulose, i.p.), for the first 3 days post injury.

spinal cord injured mice = assay: Locomotor recovery after spinal cord injury, open field BBB Locomotor Rating Scale; format: in vivo, mouse; details: over 6 weeks post injury, GM6001 N=9 vs vehicle N=4, treatment 3 hours to 3 days post injury
Method: as §1, with “A contusive injury was performed based upon modifications of procedures originally described by Kuhn and Wrathall (1998) J. Neurotrauma 15:125-140.” left out
as §2
This scale assesses 10 distinct categories that range from limb movement to tail position and involve detailed observations of joint movement, stepping, and coordination. […] Spinal cord injured animals were tested on days 1 and 3 post injury and weekly thereafter for 6 weeks. […] Positioning of the limbs and locomotion was then observed by either directly or indirectly (via the mirror) viewing the animal.

[2] = system: blood-spinal cord barrier; assay: Blood-spinal cord barrier permeability to horseradish peroxidase (HRP) after contusive spinal cord injury; format: in vivo, mouse; details: 24 hours post injury, GM 6001 100 mg/kg i.p. from 3 hours post injury, compared to wild type; for blood-spinal cord barrier permeability to HRP at the lesion epicenter: wild type mice, every 12 hours
Method: as §1, with “A contusive injury was performed based upon modifications of procedures originally described by Kuhn and Wrathall (1998) J. Neurotrauma 15:125-140.” left out
as §2

[3] = system: MMP-9 and other gelatinases; assay: Gelatin zymography of injured spinal cord extracts with metalloproteinase inhibitor control; format: biochemical, mouse; details: substrate gels incubated with 4 mM 1,10-phenanthroline
Method: Samples of spinal cord, prepared from the epicenter, were quick-frozen at −80° C. Each sample was weighed and homogenized in (1:4 weight to volume) in lysis buffer containing 50 mM Tris-HCl (pH 8.0), 150 mM NaCl, 1% NP-40, 0.5% deoxycholate, 0.1% SDS. Soluble and insoluble extracts were separated by centrifugation and stored at −20° C. Equal amounts of the supernatant were analyzed by gel zymography as previously described (Herron et al., 1986) on 10% SDS-polyacrylamide gels, copolymerized with substrate (1 mg/ml gelatin). The proteins were renatured by incubation in 2.5% Triton-X100, and then incubated in substrate buffer (50 mM Tris-HCl, […]) for 24 to 36 hours at 37° C. to enable the MMP-9 and other gelatinases to cleave the gelatin. After rinsing in water, each gel was stained with Coomassie Blue for 4 hours and destained in 50% methanol. Negative staining is indicative of the location of active protease bands. After exposure to SDS during gel separation, proenzymes, present in tissue extracts, are activated without proteolytic cleavage. To inhibit MMP proteolytic activities, substrate gels were incubated in substrate buffer with 4 mM 1,10-phenanthroline (Sigma, St. Louis, Mo.), as described (Adler et al. 1990) Development 110:211-220). This control ensured that the measured activity corresponded to matrix metalloproteinase activity. […]

| Structure (SMILES) | area of residual white matter at the lesion epicenter (spinal cord white matter) | area of residual white matter at the lesion epicenter (spinal cord white matter; listed as GM 6001) | numbers of neutrophils within the lesion epicenter (neutrophils) | abnormal barrier permeability to luciferase in the epicenter [1] | abnormal barrier permeability to luciferase in the epicenter ([1]; listed as GM 6001) | locomotor recovery (BBB Locomotor Rating Scale, 21 point scale) (spinal cord injured mice) | locomotor recovery (BBB Locomotor Rating Scale, 21 point scale) (spinal cord injured mice; listed as GM 6001) | axial distribution of abnormal barrier permeability to HRP (segments rostral and caudal to the lesion) [2] | blood-spinal cord barrier permeability to HRP at the lesion epicenter ([2]; 100 mg/kg) | blood-spinal cord barrier permeability to HRP at the lesion epicenter ([2]; listed as GM 6001, 100 mg/kg) | gelatinolytic activity (inactive and active forms of MMP-9 and MMP-2) in gelatin zymography [3] |
| --- | --- | --- | --- | --- | --- | --- | --- | --- | --- | --- | --- |
| CNC(=O)[C@H](Cc1c[nH]c2ccccc12)NC(=O)[C@@H](CC(=O)NO)CC(C)C [GM6001] | significantly greater preservation of white matter | significant preservation of white matter | significant reduction in the numbers of neutrophils | significant reduction in barrier permeability | significantly attenuated | greater locomotor | significant locomotor recovery as early as 3 days post injury and weekly thereafter | not observed | marked increase in permeability to HRP in the wild type mice as compared to | only light patches of HRP reaction product in the epicenter | – |
| c1cnc2c(c1)ccc1cccnc12 [1,10 phenanthroline, 1,10-phenanthroline] | – | – | – | – | – | – | – | – | – | – | completely blocked the gelatinolytic activity; also recorded: completely blocks the inactive and active forms |

Source: US20030139332A1, “Use of matrix metalloproteinase inhibitors to mitigate nerve damage” (The Regents of the University of California, priority 2001, published 2003)
